Laboratory results taken from patent publication US10793568B2, “Hormone receptor modulators for treating metabolic conditions and disorders” (ARDELYX, INC., priority 2016, dated 2020).

Tests used:
[1] = biological target: ligand binding domain of human FXR (Homo sapiens (Human), UniProt Q96RI1); experiment: FXR ligand binding assay (LanthaScreen TR-FRET, SRC2-2 peptide recruitment); details: for pEC50: -log EC50, concentration required to produce 50% activation; for Emax: extent of activation relative to GW4064, read-out: % Efficacy
ligand binding domain of human FXR, sequence (Q96RI1 262-486): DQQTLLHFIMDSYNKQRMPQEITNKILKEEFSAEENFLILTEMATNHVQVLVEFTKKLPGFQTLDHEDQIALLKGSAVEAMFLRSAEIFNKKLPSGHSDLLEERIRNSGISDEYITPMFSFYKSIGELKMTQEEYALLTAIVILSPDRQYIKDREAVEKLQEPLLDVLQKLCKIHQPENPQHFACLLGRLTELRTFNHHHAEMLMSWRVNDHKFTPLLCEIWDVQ

[2] = biological target: human Farnesoid X receptor ligand-binding domain/Gal4 DNA binding domain chimera (Homo sapiens (Human), UniProt Q96RI1); experiment: Cell-based assay of FXR activation (FXR-UAS-bla HEK 293T beta-lactamase reporter); details: cellular FXR beta-lactamase reporter assay; for Emax: HEK-293T, extent of activation relative to GW4064, read-out: % Efficacy; for EC50: FXR-UAS-bla HEK 293T cells, 16 h, pEC50 = -log EC50
human Farnesoid X receptor ligand-binding domain/Gal4 DNA binding domain chimera, sequence (Q96RI1 262-486, change not shown): as the sequence (Q96RI1 262-486) above
human Farnesoid X receptor ligand-binding domain/Gal4 DNA binding domain chimera, sequence (P04386 1-147 partner): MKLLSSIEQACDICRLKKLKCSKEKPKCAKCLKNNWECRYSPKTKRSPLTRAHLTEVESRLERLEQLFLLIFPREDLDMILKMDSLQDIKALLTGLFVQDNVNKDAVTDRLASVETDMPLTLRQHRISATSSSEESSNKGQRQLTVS
Procedure, shortened: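 HEK 293T cells stably expressing a Gal4-fused human FXR LBD and a UAS-driven beta-lactamase reporter were incubated with serially diluted compounds for 16 h at 37 °C in phenol red-free DMEM with 2% charcoal-stripped FBS. CCF4 FRET read-out: excitation 409 nm, emission 447 nm. pEC50 comes from a 3-parameter logistic fit, and efficacy is given as % of GW4064.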

SMILES | pEC50 [1] | Emax [1] [%] | Emax [2] [%] | EC50 [2] [nM]
O=C(O)c1cc(OC2CC2)c2nc(N3C[C@@H]4C[C@H]3C[C@H]4OCc3c(-c4c(F)cccc4Cl)noc3C3CC3)sc2c1 [Compound I-263, 2-((1S,4S,5R)-5-((3-(2-chloro-6-fluorophenyl)-5-cyclopropylisoxazol-4-yl)methoxy)-2-azabicyclo[2.2.1]heptan-2-yl)-4-cyclopropoxybenzo[d]thiazole-6-carboxylic acid] | 8.6 | 150 | 109 | 0.1
O=C(O)c1cc(C2CCOCC2)c2nc(N3C[C@@H]4C[C@H]3C[C@H]4OCc3c(-c4c(F)cccc4Cl)noc3C3CC3)sc2c1 [Compound I-264, 2-((1S,4S,5R)-5-((3-(2-chloro-6-fluorophenyl)-5-cyclopropylisoxazol-4-yl)methoxy)-2-azabicyclo[2.2.1]heptan-2-yl)-4-(tetrahydro-2H-pyran-4-yl)benzo[d]thiazole-6-carboxylic acid] | 8.5 | 142 | 105 | 0.631
O=C(O)c1cc([C@H]2CCOC2)c2nc(N3C[C@@H]4C[C@H]3C[C@H]4OCc3c(-c4c(F)cccc4Cl)noc3C3CC3)sc2c1 [Compound I-265] | 8.4 | 146 | 110 | 0.501
O=C(O)c1cc([C@@H]2CCOC2)c2nc(N3C[C@@H]4C[C@H]3C[C@H]4OCc3c(-c4c(F)cccc4Cl)noc3C3CC3)sc2c1 [Compound I-266, 2-((1S,4S,5R)-5-((3-(2-chloro-6-fluorophenyl)-5-cyclopropylisoxazol-4-yl)methoxy)-2-azabicyclo[2.2.1]heptan-2-yl)-4-((S)-tetrahydrofuran-3-yl)benzo[d]thiazole-6-carboxylic Acid] | 8.6 | 139 | 105 | 0.251
O=C(O)c1cc(O[C@H]2CCOC2)c2nc(N3C[C@@H]4C[C@H]3C[C@H]4OCc3c(-c4c(F)cccc4Cl)noc3C3CC3)sc2c1 [Compound I-267, 2-((1S,4S,5R)-5-((3-(2-chloro-6-fluorophenyl)-5-cyclopropylisoxazol-4-yl)methoxy)-2-azabicyclo[2.2.1]heptan-2-yl)-4-(((S)-tetrahydrofuran-3-yl)oxy)benzo[d]thiazole-6-carboxylic acid] | 8.6 | 146 | 102 | 1
O=C(O)c1cc(O[C@@H]2CCOC2)c2nc(N3C[C@@H]4C[C@H]3C[C@H]4OCc3c(-c4c(F)cccc4Cl)noc3C3CC3)sc2c1 [Compound I-268, 2-((1S,4S,5R)-5-((3-(2-chloro-6-fluorophenyl)-5-cyclopropylisoxazol-4-yl)methoxy)-2-azabicyclo[2.2.1]heptan-2-yl)-4-(((R)-tetrahydrofuran-3-yl)oxy)benzo[d]thiazole-6-carboxylic acid] | 8.6 | 146 | 102 | 1.58
Cc1cccc(Cl)c1-c1noc(C2CC2)c1CO[C@@H]1C[C@@H]2C[C@H]1CN2c1nc2c(C)cc(C(=O)O)cc2s1 [Compound I-269] | 8.5 | 137 | 106 | 0.631
Cc1cccc(Cl)c1-c1noc(C2CC2)c1CO[C@@H]1C[C@@H]2C[C@H]1CN2c1nc2c(OC3CC3)cc(C(=O)O)cc2s1 [Compound I-270, 2-((1S,4S,5R)-5-((3-(2-chloro-6-methylphenyl)-5-cyclopropylisoxazol-4-yl)methoxy)-2-azabicyclo[2.2.1]heptan-2-yl)-4-cyclopropoxybenzo[d]thiazole-6-carboxylic acid] | 8.7 | 150 | 106 | 0.1
